Two molecules from patent US9233946B2, “Sulfonamide compounds” (KANCERA AB, priority 2010, dated 2016) can be followed below.

SMILES strings stand for the structures.

The target of this assay is PFKFB4 (Homo sapiens (Human), UniProt Q16877). Nature of the assay: PFKFB4 kinase activity, Method B (ADP-Glo Kinase Assay). Format: biochemical. The source says: The PFKFB3 (placenta form) and PFKFB4 were produced and purified to homogeneity from E. coli at Biovitrum and at Sprint Bioscience. All other reagents were purchased from commercial sources. Two independent methods have been used for determination of the kinase activity of PFKFB3 (Method A and Method B). Method B has been used for determination of the kinase activity of PFKFB4.
Method B: The kinase activity of the bi-functional enzyme is readily quantified based on the production of ADP and F-2,6-P2 from ATP and F6P. The ADP is detected with a kit, ADP-Glo™ Kinase Assay^(a-e), from Promega. The assay is a luminescent ADP detection assay that measures kinase activity by quantifying the amount of ADP produced during the kinase reaction. The assay is performed in two steps; first, after the kinase reaction, an equal volume of ADP-Glo™ Reagent is added to terminate the kinase reaction and deplete the remaining ATP. Second, the Kinase Detection Reagent is added to simultaneously convert ADP to ATP and allow the newly synthesized ATP to be measured using a luciferase/luciferine reaction. The light generated is measured using a luminescence counter (1450 MicroBeta TriLux).
The assay was performed in white 384-well microtiter plates (OptiPlate, 6007299, PerkinElmer) by consecutive additions of 0.1 μL of a test compound solution (serial diluted in DMSO from compound DMSO stock solution and dispensed by acoustic dispensing from UV-star 384-well plate 7360153, VWR), 5 μL of enzyme solution and 5 μL of a substrate (fructose-6-phosphate (F6P) and adenosine-5′-triphosphate (ATP)) containing solution. […] Four reference dose response curves, one of them being the QC compound, were included in row O1-2, P1-2, and serial diluted as the test compounds. The final concentrations of all reagents in a total assay volume of 10.1 μL per well were: • 50 mM Tris-HCl at pH 8.0 • 10 mM MgCl2 • 5 mM Na2HPO4 at pH 8.0 • 81.48 nM PFKFB3 or 145 nM PFKFB4 • 8 μM ATP • 100 μM F6P (acid treated and then neutralized to remove any contaminating F-2,6-P2; see Van Schaftingen, 1984) • 0.005% Tween-20 • 1 mM dithiothreitol (DTT) • A test compound at various concentrations or controls (final DMSO concentration 0.99%)
Enzyme, compounds and controls were pre-incubated at room temperature for 15 min before the addition of substrate solution. The enzymatic reaction was allowed to proceed for 20 min (PFKFB3) or 40 min (PFKFB4) at room temperature. The reaction was terminated by the addition of 10 μL of ADP-Glo™ Reagent to all wells and the plate was incubated for 40 min at room temperature. After addition of 20 μL Kinase Detection Reagent to all wells the plate was incubated for 30 min at room temperature, followed by measurement in 1450 MicroBeta TriLux. All plates were centrifuged after each addition (room temperature, short spin, 500 RPM, Megafuge 1.0 Heraeus Instruments).
The inhibitory potency or IC50 values of test compounds on the kinase activity of PFKFB3 or PFKFB4 were calculated using a four-parameter model (model 205) in XLfit (IDBS ActivityBase XE Runner).

Chain of PFKFB4 (Q16877 whole entry): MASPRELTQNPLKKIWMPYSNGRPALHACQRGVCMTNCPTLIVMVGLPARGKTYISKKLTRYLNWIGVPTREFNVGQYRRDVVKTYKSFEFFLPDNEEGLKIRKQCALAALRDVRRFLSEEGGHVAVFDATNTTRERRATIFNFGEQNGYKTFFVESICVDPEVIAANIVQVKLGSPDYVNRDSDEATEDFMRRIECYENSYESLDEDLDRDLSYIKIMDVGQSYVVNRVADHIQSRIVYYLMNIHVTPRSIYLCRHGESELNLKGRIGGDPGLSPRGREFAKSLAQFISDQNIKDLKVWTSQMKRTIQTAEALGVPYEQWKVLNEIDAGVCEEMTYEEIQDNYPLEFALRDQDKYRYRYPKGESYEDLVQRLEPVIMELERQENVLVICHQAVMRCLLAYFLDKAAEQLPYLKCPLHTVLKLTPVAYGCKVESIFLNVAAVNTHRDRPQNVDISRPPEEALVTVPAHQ

By IC50 is commonly meant the concentration needed to halve the response being measured. Lower therefore signals inhibition by little substance. Turning to `Cc1c(S(=O)(=O)Nc2cccc(C(=O)O)c2)sc2ccc(C(C)C)cc12` [Example 5, 3-{[(5-Isopropyl-3-methyl-1-benzothien-2-yl)sulfonyl]amino}benzoic acid], the IC50 worked out at 0.06 µM. `Cc1c(S(=O)(=O)Nc2cccc(C(=O)O)c2)sc2ccc(Cl)cc12` [Example 38, 3-{[(5-Chloro-3-methyl-1-benzothien-2-yl)sulfonyl]amino}benzoic acid] yielded an IC50 of 0.13 µM.
